Data set [1] deals with T1, Protein-glutamine gamma-glutamyltransferase (Homo sapiens) (UniProt P21980).
T1 sequence (whole entry): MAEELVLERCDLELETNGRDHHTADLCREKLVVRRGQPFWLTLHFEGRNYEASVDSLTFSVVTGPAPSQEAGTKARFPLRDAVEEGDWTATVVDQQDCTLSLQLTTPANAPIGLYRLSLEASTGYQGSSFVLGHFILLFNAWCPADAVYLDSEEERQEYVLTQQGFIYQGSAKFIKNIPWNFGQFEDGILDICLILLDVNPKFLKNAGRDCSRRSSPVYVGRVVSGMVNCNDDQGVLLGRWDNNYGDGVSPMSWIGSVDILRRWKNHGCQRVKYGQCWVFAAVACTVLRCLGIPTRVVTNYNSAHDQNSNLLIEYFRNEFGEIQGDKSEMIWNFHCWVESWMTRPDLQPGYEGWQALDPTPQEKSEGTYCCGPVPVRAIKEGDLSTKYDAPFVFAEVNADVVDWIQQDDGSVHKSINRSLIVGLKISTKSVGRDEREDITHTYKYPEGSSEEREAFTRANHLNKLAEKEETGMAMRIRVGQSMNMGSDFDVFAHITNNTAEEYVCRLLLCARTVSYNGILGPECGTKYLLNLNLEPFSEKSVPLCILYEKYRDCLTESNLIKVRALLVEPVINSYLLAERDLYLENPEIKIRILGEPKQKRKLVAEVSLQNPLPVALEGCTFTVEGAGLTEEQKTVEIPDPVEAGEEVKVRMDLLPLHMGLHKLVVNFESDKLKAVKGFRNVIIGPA
Description: Irreversible inhibition of recombinant human TG2 assessed as Kinact/Ki using Cbz-Glu(gamma-p-nitrophenyl ester)Gly as a substrate at upto 100 uM by continuous colorimetric assay.

Data set [2] addresses T1, Protein-glutamine gamma-glutamyltransferase (Homo sapiens). Description: Irreversible inhibition of recombinant human TG2 assessed as inactivation constant using Cbz-Glu(gamma-p-nitrophenyl ester)Gly as a substrate at upto 100 uM by continuous colorimetric assay.
The target is the same in data set [3]. Description: Irreversible inhibition of recombinant human TG2 assessed as inhibition constant using Cbz-Glu(gamma-p-nitrophenyl ester)Gly as a substrate at upto 100 uM by continuous colorimetric assay.
A short description of data set [4]: Apparent permeability across basolateral to apical side in […] cells. The data set is classed as ADME, cell-based, Canis lupus familiaris. The following applies: dog, MDCK-MDR1.
Data set [5] is described as follows: Apparent permeability across apical to basolateral side in […] cells. The data set is classed as ADME, cell-based, Canis lupus familiaris. The following applies: dog, MDCK-MDR1.
Data set [6] is described as follows: Efflux ratio of apparent permeability in MDCK-MDR1 cells. The format is ADME, cell-based, Canis lupus familiaris. The following applies: dog.
Data set [7] addresses T1, Protein-glutamine gamma-glutamyltransferase (Homo sapiens).
Description: Irreversible inhibition of recombinant human TG2 assessed as inactivation constant using Cbz-Glu(gamma-p-nitrophenyl ester)Gly as a substrate by continuous colorimetric assay
Data set [8] has as its target T2, Protein-glutamine gamma-glutamyltransferase (Homo sapiens, UniProt P21980).
T2 sequence (P21980 whole entry): T1 sequence (whole entry)
The experiment in a line: Irreversible inhibition of recombinant human TG2 assessed as inhibition constant using Cbz-Glu(gamma-p-nitrophenyl ester)Gly as a substrate by continuous colorimetric assay.

The record followed here is ChEMBL document CHEMBL6114950, “Diamino variants of piperazine-based tissue transglutaminase inhibitors” (Bioorg Med Chem Lett, 2025).

The source made the active and inactive calls. The rule behind the calls is not given here.

For `C=CC(=O)NCC(=O)N1CC2(CCN(C(=O)C34CC5CC(CC(C5)C3)C4)CC2)C1`, the kinact/Ki entry in data set [1] was “inactive”. Moreover, the “inactivation constant (kinact)” value in data set [2] is “inactive”. Besides, the “inhibition constant (Ki)” value in data set [3] was “inactive”.
With `C=CC(=O)N(C)CC(=O)N1CCN(C(=O)C23CC4CC(CC(C4)C2)C3)CC1`, the Papp B→A in data set [4] was determined as 39 ×10⁻⁶ cm/s. The apparent permeability from apical to basolateral (Papp A→B) in data set [5] worked out at 19.7 ×10⁻⁶ cm/s.
As to `C=CC(=O)NCC(=O)NCCNC(=O)C12CC3CC(CC(C3)C1)C2`, the kinact/Ki entry in data set [1] is “inactive”. Further, in data set [2], the “inactivation constant (kinact)” value is “inactive”. Moreover, the “inhibition constant (Ki)” value in data set [3] is “inactive”.
As for `C=CC(=O)NCC(=O)N1CCN(C(=O)C23CC4CC(CC(C4)C2)C3)CC1`, the efflux ratio in data set [6] was 1.27. For the same molecule, the Kinact in data set [7] was 1.5 min⁻¹. Besides, the Ki in data set [8] was determined as 2.82 µM. The Papp B→A in data set [4] stood at 34.3 ×10⁻⁶ cm/s. The Papp A→B in data set [5] came to 27.2 ×10⁻⁶ cm/s.
In the case of `C=CC(=O)NCC(=O)N1CCC2(CC1)CCN(C(=O)C13CC4CC(CC(C4)C1)C3)C2`, the Kinact in data set [7] came to 0.72 min⁻¹. Besides, the Ki in data set [8] came out at 112 µM.
For `C=CC(=O)NCC(=O)N1CCC[C@@H](NC(=O)C23CC4CC(CC(C4)C2)C3)C1` the same measures were 0.67 min⁻¹ and 115 µM.
Turning to `C=CC(=O)NCC(=O)NC1CN(C(=O)C23CC4CC(CC(C4)C2)C3)C1`, the kinact/Ki entry in data set [1] is “inactive”. Also, in data set [2], the “inactivation constant (kinact)” value is “inactive”. Besides, the “inhibition constant (Ki)” value in data set [3] was “inactive”.
With `C=CC(=O)NCC(=O)NCCCCCNC(=O)C12CC3CC(CC(C3)C1)C2`, the kinact/Ki result in data set [1] was “inactive”. For the same molecule, the “inactivation constant (kinact)” value in data set [2] was “inactive”. In addition, the “inhibition constant (Ki)” value in data set [3] is “inactive”.
Turning to `C=CC(=O)NCC(=O)NC1CCC(NC(=O)C23CC4CC(CC(C4)C2)C3)CC1` (configuration not stated), in data set [1], the kinact/Ki result is “inactive”. For the same molecule, in data set [2], the “inactivation constant (kinact)” value is “inactive”. Also, in data set [3], the “inhibition constant (Ki)” value was “inactive”.
In the case of `C=CC(=O)NCC(=O)NCCCNC(=O)C12CC3CC(CC(C3)C1)C2`, the kinact/Ki result in data set [1] is “inactive”. Besides, the “inactivation constant (kinact)” value in data set [2] is “inactive”. Moreover, in data set [3], the “inhibition constant (Ki)” value is “inactive”.
Regarding `C=CC(=O)NCC(=O)N1CCC2(CC1)CCN(C(=O)C13CC4CC(CC(C4)C1)C3)CC2`, in data set [1], the kinact/Ki entry was “inactive”. Moreover, the “inactivation constant (kinact)” value in data set [2] was “inactive”. Besides, in data set [3], the “inhibition constant (Ki)” value is “inactive”.

In general, Papp B→A refers to the apparent permeability from the basolateral to the apical side of a cell layer. The Papp A→B is how fast a substance crosses the layer from the apical side. As a reminder, the efflux ratio is the permeability from basolateral to apical divided by that in the opposite direction, in the common usage.
